Laboratory results published in BindingDB's records for doi:10.1016/j.bmcl.2018.01.029 (Presidio Pharmaceuticals, 2018).

Tests used:
[1] = Inhibition of HCV genotype 1b NS5B polymerase infected in human HuH7 replicon cells by luciferase reporter gene assay
[2] = Inhibition of HCV genotype 1a NS5A polymerase infected in human HuH7 replicon cells by luciferase reporter gene assay
[3] = Inhibition of HCV genotype 1a NS5A polymerase L31V/Y93H double mutant infected in human HuH7 replicon cells by luciferase reporter gene assay

Row | SMILES | EC50 [1] [nM] | EC50 [2] [nM] | EC50 [3] [nM]
1 | CNC(=O)c1c(-c2ccc(F)cc2)oc2cc3c(cc12)[C@@H](C)OC1(CC1)CN3S(C)(=O)=O | 666 | > 2000 | –
2 | CNC(=O)c1c(-c2ccc(F)cc2)oc2cc3c(cc12)[C@H](C)N(C)C(=O)CN3S(C)(=O)=O | 13 | 102 | –
3 | CNC(=O)c1c(-c2ccc(F)cc2)oc2cc3c(cc12)C(O)CCCN3S(C)(=O)=O (centres undefined) | 107 | – | 730
4 | CNC(=O)c1c(-c2ccc(F)cc2)oc2cc3c(cc12)[C@H](C)O[C@@H](CO)CN3S(C)(=O)=O | 13 | 64 | –
5 | CNC(=O)c1c2cc3c(cc2nn1-c1ccc(F)cc1)N(S(C)(=O)=O)CCCC3C (centres undefined) | – | > 2000 | –
6 | CNC(=O)c1c(-c2ccc(F)cc2)oc2cc3c(cc12)[C@@H](C)OCCN3S(C)(=O)=O | 686 | – | 624
7 | CNC(=O)c1c(-c2ccc(F)cc2)oc2cc3c(cc12)C(=O)CCCN3S(C)(=O)=O | 78 | – | 318
8 | CNC(=O)c1c(-c2ccc(F)cc2)oc2cc3c(cc12)[C@@H](C)O[C@H](CO)CN3S(C)(=O)=O | 69 | 554 | –
9 | CNC(=O)c1c(-c2ccc(F)cc2)oc2cc3c(cc12)C(C)n1nnnc1CN3S(C)(=O)=O (centres undefined) | 8 | 33 | –
10 | CS(=O)(=O)NC(=O)c1c(-c2ccc(F)cc2)oc2cc3c(cc12)CCCCN3S(C)(=O)=O | – | – | > 2000
11 | CS(=O)(=O)N1CCCCc2cc3c(C(=O)NC4CC4)c(-c4ccc(F)cc4)oc3cc21 | – | – | > 2000
12 | CN(C)C(=O)c1c(-c2ccc(F)cc2)oc2cc3c(cc12)CCCCN3S(C)(=O)=O | – | – | > 2000
13 | CS(=O)(=O)N1CCCCc2cc3c(C(N)=O)c(-c4ccc(F)cc4)oc3cc21 | – | – | > 2000
14 | CNC(=O)c1c(-c2ccc(F)cc2)nc2cc3c(cn12)C(C)CCCN3S(C)(=O)=O (centres undefined) | 182 | – | 801
15 | CNC(=O)c1c(-c2ccc(Oc3ccc(F)cc3)cc2)oc2cc3c(cc12)C(C)CCCN3S(C)(=O)=O (centres undefined) | 14 | – | 71
16 | CNC(=O)c1c(-c2ccc(F)cc2F)oc2cc3c(cc12)C(C)CCCN3S(C)(=O)=O (centres undefined) | 8 | – | 15
17 | CNC(=O)c1c(-c2ccccc2F)oc2cc3c(cc12)C(C)CCCN3S(C)(=O)=O (centres undefined) | 7 | – | 11
18 | CNC(=O)c1c(-c2ccc(F)cc2)oc2cc3c(cc12)[C@@H](C)O[C@H](CS(C)(=O)=O)CN3S(C)(=O)=O | 24 | 100 | –
19 | CNC(=O)c1c(-c2ccc(F)cc2)oc2cc3c(cc12)[C@H](C)OC1(CC1)CN3S(C)(=O)=O | 13 | 93 | –

Row | SMILES | EC50 [1] [nM] | EC50 [2] [nM] | EC50 [3] [nM]
20 | CNC(=O)c1c(-c2ccc(F)cc2)oc2cc3c(cc12)C(C)OC1(CC1)CN3S(C)(=O)=O (centres undefined) | 19 | 130 | –
21 | CNC(=O)c1c(-c2ccc(F)cc2)oc2cc3c(cc12)[C@@H](C)n1nncc1CN3S(C)(=O)=O | 38 | – | –
22 | CNC(=O)c1c(-c2ccc(F)cc2)oc2cc3c(cc12)C(C)n1ccnc1CN3S(C)(=O)=O (centres undefined) | 74 | 26 | –
23 | CNC(=O)c1c(-c2ccc(F)cc2)oc2cc3c(cc12)[C@@H](C)N(C)C(=O)CN3S(C)(=O)=O | 59 | 688 | –
24 | CNC(=O)c1c(-c2ccc(F)cc2)oc2cc3c(cc12)[C@@H](C)NC(=O)CN3S(C)(=O)=O | 586 | 1800 | –
25 | CNC(=O)c1c(-c2ccc(F)cc2)oc2cc3c(cc12)C(C)NCCN3S(C)(=O)=O (centres undefined) | 43 | – | 265
26 | CNC(=O)c1c(-c2ccc(F)cc2)oc2cc3c(cc12)[C@H](C)OCCN3S(C)(=O)=O | 3 | – | 9
27 | CNC(=O)c1c(-c2ccc(F)cc2)oc2cc3c(cc12)[C@H]1C[C@H]1CCN3S(C)(=O)=O | > 2000 | – | > 2000
28 | CNC(=O)c1c(-c2ccc(F)cc2)oc2cc3c(cc12)[C@@H]1C[C@@H]1CCN3S(C)(=O)=O | 7 | – | 25
29 | CNC(=O)c1c(-c2ccc(F)cc2)oc2cc3c(cc12)C1(CCCN3S(C)(=O)=O)CC1 | 20 | – | 118
30 | CNC(=O)c1c(-c2ccc(F)cc2)oc2cc3c(cc12)[C@@H](C)CCCN3S(C)(=O)=O | 46 | – | 89
31 | CNC(=O)c1c(-c2ccc(F)cc2)oc2cc3c(cc12)C(C)CCCN3S(C)(=O)=O (centres undefined) | 3 | – | 10
32 | C=C1CCCN(S(C)(=O)=O)c2cc3oc(-c4ccc(F)cc4)c(C(=O)NC)c3cc21 | 26 | – | 106
33 | CNC(=O)c1c(-c2ccc(F)cc2)oc2cc3c(cc12)CCCCN3C(=O)OC | 164 | – | 722
34 | CS(=O)(=O)N1CCCCc2cc3c(-c4ncn[nH]4)c(-c4ccc(F)cc4)oc3cc21 | 850 | – | –
35 | CN(O)C(=O)c1c(-c2ccc(F)cc2)oc2cc3c(cc12)CCCCN3S(C)(=O)=O | 298 | – | > 2000
36 | CONC(=O)c1c(-c2ccc(F)cc2)oc2cc3c(cc12)CCCCN3S(C)(=O)=O | 31 | – | 90
37 | CNC(=O)c1c(-c2ccc(F)cc2)oc2cc3c(cc12)CCCCCCN3S(C)(=O)=O | 26 | – | –
38 | CNC(=O)c1c(-c2ccc(F)cc2)oc2cc3c(cc12)CCCCCN3S(C)(=O)=O | 5 | – | –

Row | SMILES | EC50 [1] [nM] | EC50 [2] [nM] | EC50 [3] [nM]
39 | CNC(=O)c1c(-c2ccc(F)cc2)oc2cc3c(cc12)CCCN3S(C)(=O)=O | 451 | – | –
40 | CNC(=O)c1c(-c2ccc(F)cc2)oc2cc3c(cc12)CCN3S(C)(=O)=O | 304 | – | –
41 | CNC(=O)c1c(-c2ccc(F)cc2)oc2cc3c(cc12)C(C)n1nncc1CN3S(C)(=O)=O (centres undefined) | 6 | – | –
42 | CNC(=O)c1c(-c2ccc(F)cc2OC)oc2cc3c(cc12)C(C)CCCN3S(C)(=O)=O (centres undefined) | 56 | – | > 2000
43 | CCNC(=O)c1c(-c2ccc(F)cc2)oc2cc3c(cc12)CCCCN3S(C)(=O)=O | – | > 2000 | –
44 | CNC(=O)c1c(-c2ccc(F)cc2)oc2cc3c(cc12)[C@H](C)NC(=O)CN3S(C)(=O)=O | 5 | – | –
45 | CNC(=O)c1c(-c2ccc(F)cc2)oc2cc3c(cc12)C(C)N(C)C(=O)CN3S(C)(=O)=O (centres undefined) | 17 | 180 | –
46 | CNC(=O)c1c(-c2ccc(F)cc2)oc2cc3c(cc12)[C@@H](C)O[C@@H](CO)CN3S(C)(=O)=O | 1470 | – | –
47 | CNC(=O)c1c(-c2ccc(F)cc2)oc2cc3c(cc12)[C@@H](C)O[C@@H](CS(C)(=O)=O)CN3S(C)(=O)=O | 1210 | > 2000 | –
48 | CNC(=O)c1c(-c2ccc(F)cc2)oc2cc3c(cc12)[C@H](C)O[C@@H](CS(C)(=O)=O)CN3S(C)(=O)=O | 13 | 57 | –
49 | CNC(=O)c1c(-c2ccc(F)cc2)oc2cc3c(cc12)C(C)N(C)CCN3S(C)(=O)=O (centres undefined) | 14 | – | 50
50 | CNC(=O)c1c(-c2ccc(F)cc2)oc2cc3c(cc12)C(C)=CCCN3S(C)(=O)=O | 16 | – | 70
51 | CS(=O)(=O)N1CCCCc2cc3c(C4=NCCN4)c(-c4ccc(F)cc4)oc3cc21 | – | – | > 2000
52 | CNC(=O)c1c(-c2ccc(F)cc2)nn2cc3c(cc12)C(C)CCCN3S(C)(=O)=O (centres undefined) | 109 | – | 523
53 | CNC(=O)c1c(-c2ccc(F)cc2)oc2cc3c(cc12)CCCCN3S(C)(=O)=O | 17 | – | 83
54 | CNC(=O)c1c(-c2ccc(F)cc2)oc2cc3c(cc12)C(C)OC(C)CN3S(C)(=O)=O (centres undefined) | 8 | 33 | –
55 | CS(=O)(=O)N1CCCCc2cc3c(C(=O)NC#N)c(-c4ccc(F)cc4)oc3cc21 | – | – | > 2000
56 | CNC(=O)c1c(-c2ccc(F)cc2)oc2cc3c(cc12)[C@H](C)n1nncc1CN3S(C)(=O)=O | 3 | – | –
